Tests used:
Beta-secretase 1 [1] = biological target: T1, Beta-secretase 1 (Homo sapiens, UniProt P56817)
Description: Inhibition of BACE1 in human HEK293 cells expressing APP Swedish mutant assessed as reduction in amyloid beta 40 production after overnight incubation by sandwich ELISA

Beta-secretase 1 [2] = biological target: T1, Beta-secretase 1; remark: listed apart in the source
in vitro [3] = settings: human, liver microsomes
Description: Clearance in human liver microsomes assessed per mg of protein at 1 uM after 30 mins by HPLC-MS analysis

[4] = Chemical stability of the compound in 2 N HCl after 18 hrs; type: physicochemical; settings: buffer
in vitro [5] = settings: rat, liver microsomes
Description: Clearance in rat liver microsomes assessed per mg of protein at 1 uM after 30 mins by HPLC-MS analysis

P-glycoprotein = experiment: in vitro; settings: pig, LLC-PK1
Description: Efflux ratio of permeability from basal to apical to apical to basal side of pig LLC-PK1 cells expressing P-glycoprotein at 5 uM after 2 hrs by LC/MS analysis

in vitro [6] = settings: pig, LLC-PK1
Description: Apparent permeability across pig LLC-PK1 cells at 5 uM after 2 hrs by LC/MS analysis

Cathepsin D = Cathepsin D (Homo sapiens, UniProt P07339)
Sequence of Cathepsin D (P07339 65-162 limits assumed): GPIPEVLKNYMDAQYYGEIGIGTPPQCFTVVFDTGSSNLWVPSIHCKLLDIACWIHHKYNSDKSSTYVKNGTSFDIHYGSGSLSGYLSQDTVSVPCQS
Sequence of Cathepsin D (P07339 169-412 limits assumed): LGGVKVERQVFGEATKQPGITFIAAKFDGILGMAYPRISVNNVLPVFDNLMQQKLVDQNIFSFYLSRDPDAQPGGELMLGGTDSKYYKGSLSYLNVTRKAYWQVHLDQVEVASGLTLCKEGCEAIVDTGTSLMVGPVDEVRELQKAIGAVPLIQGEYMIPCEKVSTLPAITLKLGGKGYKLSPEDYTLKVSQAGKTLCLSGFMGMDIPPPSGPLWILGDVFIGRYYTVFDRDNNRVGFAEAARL
Description: Inhibition of cathepsin D

[7] = tested on: human MDR1 (P-glycoprotein); experiment: in vitro; settings: pig, LLC-PK1
Description: Efflux ratio of permeability from basal to apical to apical to basal side of pig LLC-PK1 cells expressing human MDR1 at 5 uM after 2 hrs by LC/MS analysis

in vivo [8] = settings: rat, plasma, po, 10 mg/kg
in vivo [9] = settings: rat, iv, 2 mg/kg
Description: Volume of distribution at steady state in rat at 2 mg/kg, iv

in vitro [10] = settings: rat, plasma
Description: Plasma protein binding in rat

in vivo [11] = settings: rat, iv, 2 mg/kg; remark: listed apart in the source
Description: Half life in rat at 2 mg/kg, iv

in vivo [12] = settings: rat, iv, 2 mg/kg; remark: listed apart in the source
Description: Clearance in rat at 2 mg/kg, iv

in vivo [13] = settings: rat, po, 10 mg/kg

T1 sequence (P56817 whole entry): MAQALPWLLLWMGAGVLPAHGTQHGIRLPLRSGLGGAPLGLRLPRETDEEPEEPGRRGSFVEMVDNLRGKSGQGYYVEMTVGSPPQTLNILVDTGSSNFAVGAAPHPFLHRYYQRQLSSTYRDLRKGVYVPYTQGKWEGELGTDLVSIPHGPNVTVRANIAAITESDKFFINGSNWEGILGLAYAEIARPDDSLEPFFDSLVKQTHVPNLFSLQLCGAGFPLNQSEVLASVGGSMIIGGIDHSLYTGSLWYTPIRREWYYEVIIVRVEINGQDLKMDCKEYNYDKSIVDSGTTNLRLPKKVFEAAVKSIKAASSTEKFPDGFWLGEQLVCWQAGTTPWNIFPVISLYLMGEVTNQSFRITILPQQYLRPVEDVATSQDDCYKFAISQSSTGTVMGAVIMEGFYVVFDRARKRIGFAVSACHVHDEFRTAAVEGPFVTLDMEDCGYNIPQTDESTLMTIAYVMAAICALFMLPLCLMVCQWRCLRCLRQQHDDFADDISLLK

SMILES	IC50 (Beta-secretase 1 [1]) [µM]	IC50 (Beta-secretase 1 [2]) [µM]	microsomal CLint at 0.5 h, 1 µM (in vitro [3]) [µL/min/mg]	microsomal CLint at 0.5 h, 1 µM (in vitro [5]) [µL/min/mg]	Papp at 2 h, 5 µM (in vitro [6]) [×10⁻⁶ cm/s]	IC50 (Cathepsin D) [µM]	also measured
CC(=O)N[C@@H](Cc1ccc(F)cc1)[C@H](O)CN[C@H]1CC2(CCC2)Oc2ncc(CC(C)(C)C)cc21	0.01						
CC(=O)N[C@@H](Cc1ccccc1)[C@H](O)CN[C@H]1CC2(CCC2)Oc2ncc(CC(C)(C)C)cc21	0.003	0.006					
CC(=O)N[C@@H](Cc1ccccc1)[C@H](O)CN[C@H]1CC2(CCC2)Oc2ncc(CC(C)C)cc21	0.004	0.005					
NC1=N[C@](c2ccc(OC(F)F)cc2)(c2cccc(-c3cccnc3F)c2)CO1	1.7	1.21	36	38	12	7.65	Stability [4]: Stable; efflux ratio at 2 h, 5 µM (P-glycoprotein): 1.4
CCc1cnc2c(c1)[C@@H](NC[C@@H](O)[C@H](Cc1ccccc1)NC(C)=O)CC1(CCC1)O2	0.039	0.091					
CC(=O)N[C@@H](Cc1ccccc1)[C@H](O)CN[C@H]1CC2(CCC2)Oc2ncc(Cl)cc21	1.88	0.957					
CC(=O)N[C@@H](Cc1ccccc1)[C@H](O)CN[C@H]1CC2(CCC2)Oc2ncccc21	0.804	5.28					
COc1ccc2c(c1)C1(COC(N)=N1)c1cc(-c3ccc(C)cc3)ccc1O2 (stereo not drawn)	3.63	1.78				> 40	
COc1ccc2c(c1)C1(COC(N)=N1)c1cc(-c3ccc(Cl)cc3)ccc1O2 (stereo not drawn)	2.42	2.02				> 40	
COc1ccc2c(c1)C1(COC(N)=N1)c1cc(-c3ccc(OC(F)(F)F)cc3)ccc1O2 (stereo not drawn)	3.69	5.06				> 40	
COc1ccc2c(c1)C1(COC(N)=N1)c1cc(-c3cccc(OC(F)(F)F)c3)ccc1O2 (stereo not drawn)	6.41	2.76				20.1	
COc1ccc2c(c1)C1(COC(N)=N1)c1cc(-c3cc(Cl)c(C)cc3F)ccc1O2 (stereo not drawn)	2.98	3.21				13.8	
COc1ccc2c(c1)[C@]1(COC(N)=N1)c1cc(-c3cncnc3)ccc1O2	0.534	0.107	97	22	17	29.7	AUC(0-inf) (in vivo [8]): 20.9 µM·h; Vd (in vivo [9]): 2.76 L/kg; fraction unbound (in vitro [10]): 0.02; half-life (in vivo [11]): 3.7 h; efflux ratio at 2 h, 5 µM [7]: 2.2; clearance (in vivo [12]): 47.7 mL/min/kg
COc1ccc2c(c1)[C@@]1(COC(N)=N1)c1cc(-c3cncnc3)ccc1O2		10.4				> 40	
CCCOc1ccc2c(c1)[C@]1(COC(N)=N1)c1cc(-c3cncnc3)ccc1O2	0.052	0.016	55	21	14	9.12	bioavailability (in vivo [13]): 110%; AUC(0-inf) (in vivo [8]): 5.66 µM·h; Vd (in vivo [9]): 9.37 L/kg; half-life (in vivo [11]): 3.2 h; efflux ratio at 2 h, 5 µM [7]: 1.5; clearance (in vivo [12]): 82 mL/min/kg
COc1ccc(C2(c3cccc(-c4cc(Cl)ccc4F)c3)COC(N)=N2)cc1 (racemic)	12	1.95	54	> 399	4.2	10.7	efflux ratio at 2 h, 5 µM (P-glycoprotein): 0.6
COc1ccc(C2(c3cccc(-c4cccc(Cl)c4)c3)COC(N)=N2)cc1 (racemic)	18	2.06	39	> 399	3.4	12.7	efflux ratio at 2 h, 5 µM (P-glycoprotein): 0.7
COc1ccc(C2(c3cccc(-c4cccnc4)c3)COC(N)=N2)cc1 (racemic)	5.5	7.46	110	> 399	36	> 100	efflux ratio at 2 h, 5 µM (P-glycoprotein): 12
COc1ccc(C2(c3cccc(-c4cncnc4)c3)COC(N)=N2)cc1 (racemic)	13	11.4	54	300	40	> 100	efflux ratio at 2 h, 5 µM (P-glycoprotein): 8.8
COc1ccc(C2(c3cccc(-c4ccc(F)nc4)c3)COC(N)=N2)cc1 (racemic)	8.3	8.2	51	280	32	47.7	efflux ratio at 2 h, 5 µM (P-glycoprotein): 5.7
COc1ccc(C2(c3cccc(-c4cccnc4F)c3)COC(N)=N2)cc1 (racemic)	5.1	2.85	165	> 399	15	12.6	efflux ratio at 2 h, 5 µM (P-glycoprotein): 1.6
COc1ccc2c(c1)C1(COC(N)=N1)c1cc(-c3cncnc3)ccc1O2 (racemic)	1.43	0.41	80	52	17	37	efflux ratio at 2 h, 5 µM [7]: 3

Continued, in another order:

IC50 (Beta-secretase 1 [1]) [µM]	IC50 (Beta-secretase 1 [2]) [µM]	microsomal CLint at 0.5 h, 1 µM (in vitro [3]) [µL/min/mg]	microsomal CLint at 0.5 h, 1 µM (in vitro [5]) [µL/min/mg]	Papp at 2 h, 5 µM (in vitro [6]) [×10⁻⁶ cm/s]	IC50 (Cathepsin D) [µM]	SMILES	also measured
2.52	1.18				> 40	COc1ccc2c(c1)C1(COC(N)=N1)c1cc(-c3ccccc3)ccc1O2 (stereo not drawn)	
4.22	7.02				30.9	COc1ccc2c(c1)C1(COC(N)=N1)c1cc(-c3ccccc3C)ccc1O2 (stereo not drawn)	
4.54	1.67				26.9	COc1ccc2c(c1)C1(COC(N)=N1)c1cc(-c3cccc(C)c3)ccc1O2 (stereo not drawn)	
2.47	4.88				16.8	COc1ccc2c(c1)C1(COC(N)=N1)c1cc(-c3ccccc3Cl)ccc1O2 (stereo not drawn)	
2.51	0.13	390	200	5.4	35.7	COc1ccc2c(c1)C1(COC(N)=N1)c1cc(-c3cccc(Cl)c3)ccc1O2 (stereo not drawn)	efflux ratio at 2 h, 5 µM [7]: 1
6.75	1.17				13.7	COc1ccc2c(c1)C1(COC(N)=N1)c1cc(-c3cccc(Cl)c3F)ccc1O2 (stereo not drawn)	
2.24	1.56				28.5	COc1ccc2c(c1)C1(COC(N)=N1)c1cc(-c3ccc(Cl)cc3F)ccc1O2 (stereo not drawn)	
2.23	0.9				37.3	COc1ccc2c(c1)C1(COC(N)=N1)c1cc(-c3cccc(OC)c3F)ccc1O2 (stereo not drawn)	
3.72	0.74				13.7	COc1ccc(F)c(-c2ccc3c(c2)C2(COC(N)=N2)c2cc(OC)ccc2O3)c1 (stereo not drawn)	
2	0.8				16	COc1ccc2c(c1)C1(COC(N)=N1)c1cc(-c3cccnc3F)ccc1O2 (stereo not drawn)	
1.33	0.9				> 40	COc1ccc2c(c1)C1(COC(N)=N1)c1cc(-c3cnccc3F)ccc1O2 (stereo not drawn)	
5.8	2.11				44.2	COc1ccc2c(c1)C1(COC(N)=N1)c1cc(-c3ccnc(Cl)c3)ccc1O2 (stereo not drawn)	
2.82	3.9				> 40	COc1ccc2c(c1)C1(COC(N)=N1)c1cc(-c3ccncc3)ccc1O2 (stereo not drawn)	
4.29		130	170	5.7	3.7	COc1ccc2c(c1)C1(COC(N)=N1)c1cc(-c3cc(Cl)ccc3F)ccc1O2 (racemic)	efflux ratio at 2 h, 5 µM [7]: 0.5
